According to the supplement of paper PMC11061612:

Experiments:
Assay in all cases: combination Emax (second highest fraction inhibited in the dose matrix, 72 h); higher = more inhibition; extreme values may be limits of the assay
[1] = tested on: A253 (Head and Neck Carcinoma)
Outline: (§1)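 Bliss excess equals the observed combination effect minus the expected value EA + EB − EA·EB, where EA and EB are the effects of each agent alone. Combination Emax is the second-highest inhibition within the matrix. Inhibition was scaled from CellTiter-Glo 2.0 luminescence, with 0 set by vehicle wells and 1 by blank wells, after 72 hours of two-drug dosing of cells plated in 1536-well plates.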

[2] = tested on: A2780 (Ovarian Carcinoma)
Outline: as §1

[3] = tested on: CESS (Acute Myeloid Leukemia)
Outline: as §1

[4] = tested on: CGTH-W-1 (Thyroid Gland Carcinoma)
Outline: as §1

COLO-792 (Melanoma) = tested on: COLO-792 (Melanoma)
Outline: as §1

[5] = tested on: DU-4475 (Breast Carcinoma)
Outline: as §1

EB2 (Burkitt's Lymphoma) = tested on: EB2 (Burkitt's Lymphoma)
Outline: as §1

[6] = tested on: EPLC-272H (Other Solid Carcinomas)
Outline: as §1

[7] = tested on: GA-10 (Burkitt's Lymphoma)
Outline: as §1

[8] = tested on: GCT (Other Solid Carcinomas)
Outline: as §1

[9] = tested on: HCC1428 (Breast Carcinoma)
Outline: as §1

IM-9 (Non-Cancerous) = tested on: IM-9 (Non-Cancerous)
Outline: as §1

[10] = tested on: JIMT-1 (Breast Carcinoma)
Outline: as §1

[11] = tested on: Jurkat (T-Lymphoblastic Leukemia)
Outline: as §1

[12] = tested on: MHH-ES-1 (Ewing's Sarcoma)
Outline: as §1

[13] = tested on: NCI-H1651 (Lung Adenocarcinoma)
Outline: as §1

[14] = tested on: NCI-H2087 (Lung Adenocarcinoma)
Outline: as §1

[15] = tested on: NCI-H441 (Lung Adenocarcinoma)
Outline: as §1

RH-41 (Rhabdomyosarcoma) = tested on: RH-41 (Rhabdomyosarcoma)
Outline: as §1

[16] = tested on: UACC-812 (Breast Carcinoma)
Outline: as §1

Row | Structure (SMILES) | combination Emax [1] | combination Emax [2] | combination Emax [3] | combination Emax [4] | combination Emax (COLO-792 (Melanoma)) | combination Emax [5] | combination Emax (EB2 (Burkitt's Lymphoma)) | combination Emax [6] | combination Emax [7] | combination Emax [8] | combination Emax [9] | combination Emax (IM-9 (Non-Cancerous)) | combination Emax [10] | combination Emax [11] | combination Emax [12] | combination Emax [13] | combination Emax [14] | combination Emax [15] | combination Emax (RH-41 (Rhabdomyosarcoma)) | combination Emax [16]
1 | NC1(C(=O)N[C@@H](CCO)c2ccc(Cl)cc2)CCN(c2ncnc3[nH]ccc23)CC1 [Capivasertib] + COc1nnc2ccc(N3CCC(c4ccc(OCCN5CCN(C)C(=O)[C@H]5C)cc4)CC3)nn12 [AZD5153] (first compound max 10 µM, 7x7, partner max 1 µM) | 0.75 | 0.873 | 0.747 | 0.408 | 0.94 | 0.979 | 0.707 | 0.944 | 0.927 | 0.695 | 0.571 | 0.811 | 0.446 | 0.992 | 0.717 | 0.0984 | 0.301 | 0.379 | 1 | –
2 | NC1(C(=O)N[C@@H](CCO)c2ccc(Cl)cc2)CCN(c2ncnc3[nH]ccc23)CC1 [Capivasertib] + C[C@@H]1COCCN1C2=NC(=NC(=C2)C3(CC3)[S@](=N)(=O)C)C4=C5C=CNC5=NC=C4 [AZD6738] (first compound max 10 µM, 7x7, partner max 10 µM) | 0.852 | 0.86 | 0.91 | 0.398 | 0.549 | 0.987 | 0.831 | 0.885 | 1 | 0.673 | 0.318 | 0.979 | 0.612 | 0.961 | 0.645 | 0.581 | 0.486 | 0.448 | 0.976 | –
3 | Cc1c2c(nn1C)CSCc1cc(n(C)n1)CSc1cc(c3ccccc3c1)OCCCc1c(C(=O)O)n(C)c3c-2c(Cl)ccc13 [AZD5991] + CCN(CCO)CCCOc1ccc2c(Nc3cc(CC(=O)Nc4cccc(F)c4)[nH]n3)ncnc2c1 [AZD2811] (first compound max 1 µM, 7x7, partner max 1 µM) | 0.896 | 0.802 | 0.578 | 0.521 | 0.977 | 0.378 | 0.342 | 0.945 | 0.923 | 0.416 | 0.974 | 1 | – | 0.919 | 0.883 | 0.356 | 0.191 | 0.31 | 1 | 0.508
4 | NC1(C(=O)N[C@@H](CCO)c2ccc(Cl)cc2)CCN(c2ncnc3[nH]ccc23)CC1 [Capivasertib] + CC(=O)c1c(C)c2cnc(Nc3ccc(N4CCNCC4)cn3)nc2n(C2CCCC2)c1=O [Palbociclib] (first compound max 10 µM, 7x7, partner max 10 µM) | 0.673 | 0.77 | 0.708 | 0.349 | 0.465 | 0.295 | 0.566 | 0.891 | 0.97 | 0.718 | 0.18 | 0.706 | 0.246 | 0.849 | 0.5 | 0.0542 | 0.244 | 0.348 | 0.945 | –
5 | CS(=O)(=O)CCNCc1ccc(-c2ccc3ncnc(Nc4ccc(OCc5cccc(F)c5)c(Cl)c4)c3c2)o1 [Lapatinib] + NC1(c2ccc(-c3nc4ccn5c(=O)[nH]nc5c4cc3-c3ccccc3)cc2)CCC1 [MK-2206] (first compound max 10 µM, 7x7, partner max 10 µM) | – | 0.909 | – | 0.894 | – | 0.983 | 0.834 | – | – | – | 0.308 | 0.964 | – | – | 0.905 | 0.442 | 0.293 | 0.473 | – | –
6 | CC(=O)c1c(C)c2cnc(Nc3ccc(N4CCNCC4)cn3)nc2n(C2CCCC2)c1=O [Palbociclib] + Cc1c2c(nn1C)CSCc1cc(n(C)n1)CSc1cc(c3ccccc3c1)OCCCc1c(C(=O)O)n(C)c3c-2c(Cl)ccc13 [AZD5991] (first compound max 10 µM, 7x7, partner max 1 µM) | 0.635 | 0.912 | 0.669 | 0.176 | 0.836 | 0.231 | 0.518 | 0.822 | 0.975 | 0.395 | 0.952 | 0.714 | 0.179 | 0.883 | 0.622 | 0.143 | 0.218 | 0.302 | 0.911 | –
7 | NC1(C(=O)N[C@@H](CCO)c2ccc(Cl)cc2)CCN(c2ncnc3[nH]ccc23)CC1 [Capivasertib] + CC(C)n1c(=O)n(C)c2cnc3cc(F)c(-c4ccc(OCCCN5CCCCC5)nc4)cc3c21 [AZD1390] (first compound max 10 µM, 7x7, partner max 0.3 µM) | 0.559 | 0.643 | 0.456 | 0.357 | 0.444 | 0.331 | 0.61 | 0.632 | 0.74 | 0.6 | 0.186 | 0.577 | 0.202 | 0.697 | 0.354 | 0.149 | 0.206 | 0.252 | 0.921 | –
